Source: patent US20180147206A1, “ACTIVATION OF NEURONAL STORE-OPERATED CALCIUM ENTRY PATHWAY FOR THE TREATMENT OF ALZHEIMER'S DISEASE” (The Board of Regents of the University of Texas System, priority 2015, published 2018)

How the values were obtained:
TRPC6 = target: T1, TRPC6 (Homo sapiens, UniProt Q9Y210); experiment: Fura-2 Ca2+ imaging in TRPC6-transfected HEK293 cells; format: cell-based; conditions: for potentiation of OAG-induced responses: preincubation 1 μM, 100 μM OAG
T1 construct: expressed in transfected cells; host or cells: HEK293
T1 sequence (Q9Y210 1-931): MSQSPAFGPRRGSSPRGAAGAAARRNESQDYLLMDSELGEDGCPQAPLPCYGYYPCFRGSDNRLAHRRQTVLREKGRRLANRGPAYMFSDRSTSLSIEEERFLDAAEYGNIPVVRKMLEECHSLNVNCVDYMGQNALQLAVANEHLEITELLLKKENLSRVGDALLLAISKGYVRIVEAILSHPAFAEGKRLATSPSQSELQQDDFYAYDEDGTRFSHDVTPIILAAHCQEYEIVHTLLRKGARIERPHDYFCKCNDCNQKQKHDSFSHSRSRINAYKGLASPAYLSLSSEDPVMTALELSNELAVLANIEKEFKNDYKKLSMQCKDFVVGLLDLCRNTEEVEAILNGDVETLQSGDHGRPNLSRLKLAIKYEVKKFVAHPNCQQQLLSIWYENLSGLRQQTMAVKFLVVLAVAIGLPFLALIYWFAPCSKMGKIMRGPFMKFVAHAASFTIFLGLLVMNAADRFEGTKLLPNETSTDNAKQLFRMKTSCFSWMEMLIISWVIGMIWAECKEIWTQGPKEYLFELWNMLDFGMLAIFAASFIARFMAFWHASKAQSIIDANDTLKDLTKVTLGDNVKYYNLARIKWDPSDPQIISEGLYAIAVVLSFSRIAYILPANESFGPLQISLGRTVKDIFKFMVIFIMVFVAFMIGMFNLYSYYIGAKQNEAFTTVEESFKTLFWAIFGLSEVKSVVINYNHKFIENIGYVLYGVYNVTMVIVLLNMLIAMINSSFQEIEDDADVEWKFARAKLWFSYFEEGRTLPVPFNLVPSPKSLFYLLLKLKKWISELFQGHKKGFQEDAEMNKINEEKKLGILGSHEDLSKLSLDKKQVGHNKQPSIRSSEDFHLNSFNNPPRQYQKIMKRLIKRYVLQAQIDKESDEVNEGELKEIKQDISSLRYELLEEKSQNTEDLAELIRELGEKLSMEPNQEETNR

[1] = Stability in CD-1 mouse plasma; format: in vitro ADME; conditions: commercial CD-1 mouse plasma; 2 μM
Protocol: FIGS. 12A-D. NSN21778 in vitro metabolism stability, in vivo plasma pharmacokinetics, and side effect on body weight (Related to FIGS. 7A-G). (FIG. 12A) The metabolic stability of NSN21778 was evaluated in vitro after incubation with commercial liver S9 fractions in the presence of phase I (NADPH regenerating system) cofactors. Compound levels were determined by LC-MS/MS. Additionally, the stability of NSN21778 in the presence of commercial CD-1 mouse plasma was measured. (FIG. 12B) NSN21778 was dosed i.p. at 10 mg/kg to female CD-1 mice. Levels of NSN21778 in plasma and brain were evaluated by LC-MS/MS. (FIG. 12C) WTGFP, PS1KIGFP and APPKIGFP mice body weight after i.p. administrated with control solution or 10 mg/kg NSN21778 for 10 weeks. Data presented as mean±SE (n=5 mice). (FIG. 12D) Body weight gained for various treatments.
In vitro metabolism assays. Female ICR/CD-1 mouse S9 fractions were purchased from Celsis/In Vitro Technologies (Baltimore, Md.). 25 μl (0.5 mg) of S9 protein was added to a 15 ml glass screw cap tube. […] The supernatant was analyzed by LC-MS/MS. Stability in commercial mouse CD-1 plasma (Bioreclamation, Westbury, N.Y.) was measured in a similar fashion. […] Reactions were quenched with methanol as above and supernatants evaluated by LC-MS/MS. Compound half-life was determined by the method of substrate depletion as described (McNaney et al., 2008).

SMILES: CC(=O)Nc1ccc(CCNc2ncnc3ccc(N)cc23)cc1 [NSN21778, N-{4-[2-(6-Amino-quinazolin-4-ylamino)-ethyl]-phenyl}-acetamide]
- SOC in conditions of store depletion (TRPC6; GFP or TRPC6 HEK293 cells preincubated in Ca2+-free media with 1 μM Tg (data not shown)): no additional effect
- Ca2+ influx (TRPC6; TRPC6-transfected HEK293 cells, 1 μM, 2 mM Ca2+): did not trigger Ca^2+ influx
- potentiation of OAG-induced responses (TRPC6; TRPC6-transfected cells, stores partially depleted (0.1 mM Ca2+)): significant potentiation
- potentiation of OAG-induced responses (TRPC6; control GFP cells, stores partially depleted): not in control GFP cells
- stability in plasma [1]: stable
